These are literature values, as cited in US20220333078A1, “Method for ex vivo expansion CD34+HSPCs into NK cells using an aryl hydrocarbon receptor antagonist” (Stichting Radboud universitair medisch centrum, priority 2015, published 2022).

This series concerns CD34+UCB cells. As to conditions: after 25 days of culture with IL-1β; cited from earlier work.

For “IL-1β: cytokine added at the beginning of CD34+UCB culture in the protocol of Ambrosini et al.”, the “overall percentage of CD56+NK cells expressing CD161, LFA1, NKG2A, NKp46, EOMES and perforin” value is given as less than 20%.
